Source: patent US5486516A, “Furopyrimidine derivatives” (DowElanco, priority 1993, dated 1996)

Legend:
[1] = system: Pyricularia oryzae (rice blast); test: whole plant or invertebrate; type: in vivo; conditions: foliar, read-out: RICE BLAST control rating
[2] = system: Southern corn rootworm (Diabrotica undecimpuctata howardi Barber); test: Mite/insect screen, corn rootworm; type: in vivo; conditions: soil; for mortality at 12 ppm / mortality at 24 ppm: Diabrotica, read-out: CRW results (percent mortality)
Experimental: (§1) The compounds of Examples were tested for miticidal and insecticidal activity in the following mite/insect screen.
(§2) Each test compound was formulated by dissolving the compound in acetone/alcohol (50:50) mixture containing 23 g of "TOXIMUL R" (sulfonate/nonionic emulsifier blend) and 13 g of "TOXIMUL S" (sulfonate/nonionic emulsifier blend) per liter. These mixtures were then diluted with water to give the indicated concentrations.
Activity on Southern corn rootworm (Diabrotica undecimpuctata howardi Barber) was evaluated by adding two ml of tap water, a presoaked corn seed, and 15 g of dry sandy soil to a one ounce plastic container. The soil was treated with 1 mL of test solution containing a predetermined concentration of test compound. After six to 12 hours of drying, five 2-3 instar corn rootworm larvae were added to the individual cups, which were then capped and held at 23° C.
(§3) After standard exposure periods, percent mortality and phytotoxicity were evaluated. […] The following abbreviations are used in Table 3:
CRW refers to corn rootworm

[3] = system: southern armyworm (Spodopetra eridania Cramer); test: Mite/insect screen, Southern armyworm; type: in vivo; conditions: sprayed leaves; for mortality at 200 ppm / mortality at 400 ppm: Spodoptera eridania, read-out: SAW results (percent mortality)
Experimental: as §1, §2
(§4) Twospotted spider mites (Tetranychus urticae Koch) and melon aphids (Aphis gossvpii Glover) were introduced on squash cotyledons and allowed to establish on both leaf surfaces. Other plants in the same treatment pot were left uninfested. The leaves were then sprayed with 5 ml of test solution using a DeVilbiss atomizing sprayer at 10 psi. Both surfaces of the leaves were covered until runoff, and then allowed to dry for one hour. Two uninfested leaves were then excised and placed into a Petri dish containing larval southern armyworm (Spodopetra eridania Cramer).
as §3
SAW refers to Southern armyworm

[4] = system: Twospotted spider mites (Tetranychus urticae Koch); test: Mite/insect screen, twospotted spider mites; type: in vivo; conditions: sprayed leaves; for mortality at 200 ppm / mortality at 400 ppm: Tetranychus urticae, read-out: SM results (percent mortality)
Experimental: as §1, §2, §4, §3
SM refers to twospotted spider mites

[5] = system: melon aphids (Aphis gossvpii Glover); test: Mite/insect screen, melon aphids; type: in vivo; conditions: sprayed leaves; for mortality at 200 ppm / mortality at 400 ppm: Aphis, read-out: MA results (percent mortality)
Experimental: as §1, §2, §4, §3
MA refers to melon aphids.

[6] = system: Puccinia recondita tritici (leaf rust); test: Plant pathology screen (Test 1), leaf rust on wheat; conditions: in Triticum aestivum, foliar, read-out: LEAF RUST control rating
[7] = system: Pseudoperonospora cubensis (downy mildew); test: Plant pathology screen (Test 1), downy mildew on squash; conditions: foliar, read-out: DOWN MDEW control rating
Experimental: The test compounds were formulated for application by dissolving 50 mg of the compound into 1.25 ml of solvent. The solvent was prepared by mixing 50 ml of "Tween 20" (polyoxyethylene (20) sorbitan monolaurate emulsifier) with 475 ml of acetone and 475 ml of ethanol. The solvent/compound solution was diluted to 125 ml with deionized water. The resulting formulation contains 400 ppm test chemical. Lower concentrations were obtained by serial dilution with the solvent-surfactant mixture.
The formulated test compounds were applied by foliar spray. The following plant pathogens and their corresponding plants were employed.
The formulated technical compounds were sprayed on all foliar surfaces of the host plants (or cut berry) to past run-off. Single pots of each host plant were placed on raised, revolving pedestals in a fume hood. Test solutions were sprayed on all foliar surfaces. All treatments were allowed to dry and the plants were inoculated with the appropriate pathogens within 2-4 hours.
The effectiveness of test compounds in controlling disease was rated using the following scale.

[8] = system: Erysiphe graminis tritici (powdery mildew); test: Plant pathology screen (Test 1), powdery mildew on wheat; conditions: Blumeria graminis, in Triticum aestivum, foliar, read-out: POWD MDEW control rating
[9] = system: Botrytis cinerea (gray mold); test: Plant pathology screen (Test 1), gray mold on grape berries; conditions: read-out: GRAY MOLD control rating

**Q.** Which results are given for COc1ccc(CCNc2ncnc3oc(C)c(C)c23)cc1OC [Example 25, 5,6-dimethyl-N-[2-(3,4-dimethoxyphenyl)ethyl]furo[2,3-d]pyrimidin-4-amine]?
**A.** pest or weed control at 400 µg/mL [1]: 0 to 19%; mortality at 12 ppm ([2]; CRW rate 12.00 ppm): 0%; mortality at 24 ppm ([2]; CRW rate 24.00 ppm): 0%; mortality at 200 ppm ([3]; rate 200 ppm): 0%; mortality at 400 ppm ([3]; rate 400 ppm): 0%; mortality at 200 ppm ([4]; rate 200 ppm): 0%; mortality at 400 ppm ([4]; rate 400 ppm): 0%; mortality at 200 ppm ([5]; rate 200 ppm): 0%; mortality at 400 ppm ([5]; rate 400 ppm): 0%; pest or weed control at 400 µg/mL [6]: 20 to 89%; pest or weed control at 400 µg/mL [7]: 0 to 19%; pest or weed control at 400 µg/mL [8]: 0 to 19%; pest or weed control at 400 µg/mL [9]: 0 to 19%

**Q.** For Cc1cc2c(NCCc3ccc(Cl)cc3)ncnc2o1 [Example 6, 6-methyl-N-[2-(4-chlorophenyl)ethyl]furo(2,3-d]pyrimidin-4-amine], which pest or weed control at 400 µg/mL [1] is on record?
**A.** 0 to 19%

**Q.** What about the mortality at 12 ppm ([2]; CRW rate 12.00 ppm) of the same molecule?
**A.** 0%

**Q.** And the mortality at 24 ppm ([2]; CRW rate 24.00 ppm)?
**A.** 0%

**Q.** And the mortality at 200 ppm ([3]; rate 200 ppm)?
**A.** 0%

**Q.** What about the mortality at 400 ppm ([3]; rate 400 ppm) of the same molecule?
**A.** 0%

**Q.** What about the mortality at 200 ppm ([4]; rate 200 ppm) of the same molecule?
**A.** 0%

**Q.** And the mortality at 400 ppm ([4]; rate 400 ppm)?
**A.** 0%

**Q.** And the mortality at 200 ppm ([5]; rate 200 ppm)?
**A.** 0%

**Q.** What about the mortality at 400 ppm ([5]; rate 400 ppm) of the same molecule?
**A.** 0%

**Q.** And the pest or weed control at 400 µg/mL [6]?
**A.** 0 to 19%

**Q.** And the pest or weed control at 400 µg/mL [7]?
**A.** 0 to 19%

**Q.** And the pest or weed control at 400 µg/mL [8]?
**A.** 0 to 19%

**Q.** What about the pest or weed control at 400 µg/mL [9] of the same molecule?
**A.** 0 to 19%

**Q.** Which pest or weed control at 400 µg/mL [1] does the source give for Cc1cc2c(OCCc3ccc(C(C)(C)C)cc3)ncnc2o1 [Example 46, 4-[2-[4-(1,1-dimethylethyl)phenyl]ethoxy]-6-methylfuro[2,3-d]pyrimidine] here?
**A.** 0 to 19%

**Q.** What about the mortality at 12 ppm ([2]; CRW rate 12.00 ppm) of the same molecule?
**A.** 0%

**Q.** What about the mortality at 24 ppm ([2]; CRW rate 24.00 ppm) of the same molecule?
**A.** 0%

**Q.** And the mortality at 200 ppm ([3]; rate 200 ppm)?
**A.** 0%

**Q.** What about the mortality at 400 ppm ([3]; rate 400 ppm) of the same molecule?
**A.** 0%

**Q.** And the mortality at 200 ppm ([4]; rate 200 ppm)?
**A.** 80%

**Q.** And the mortality at 400 ppm ([4]; rate 400 ppm)?
**A.** 80%

**Q.** And the mortality at 200 ppm ([5]; rate 200 ppm)?
**A.** 90%

**Q.** And the mortality at 400 ppm ([5]; rate 400 ppm)?
**A.** 60%

**Q.** What about the pest or weed control at 400 µg/mL [6] of the same molecule?
**A.** 0 to 19%

**Q.** What about the pest or weed control at 400 µg/mL [7] of the same molecule?
**A.** 0 to 19%

**Q.** What about the pest or weed control at 400 µg/mL [8] of the same molecule?
**A.** 0 to 19%

**Q.** And the pest or weed control at 400 µg/mL [9]?
**A.** 0 to 19%

**Q.** Cc1cc2c(OCCc3ccc(OC(C)(C)C)cc3)ncnc2o1 [Example 43, 6-methyl-4-[2-[4-(t-butoxy)phenyl]ethoxy]furo[2,3-d]pyrimidine] was tested. Which pest or weed control at 400 µg/mL [1] did it give?
**A.** 20 to 89%

**Q.** And the mortality at 12 ppm ([2]; CRW rate 12.00 ppm)?
**A.** 0%

**Q.** What about the mortality at 24 ppm ([2]; CRW rate 24.00 ppm) of the same molecule?
**A.** 0%

**Q.** What about the mortality at 200 ppm ([3]; rate 200 ppm) of the same molecule?
**A.** 0%

**Q.** And the mortality at 400 ppm ([3]; rate 400 ppm)?
**A.** 0%

**Q.** And the mortality at 200 ppm ([4]; rate 200 ppm)?
**A.** 90%

**Q.** What about the mortality at 400 ppm ([4]; rate 400 ppm) of the same molecule?
**A.** 80%

**Q.** And the mortality at 200 ppm ([5]; rate 200 ppm)?
**A.** 90%

**Q.** What about the mortality at 400 ppm ([5]; rate 400 ppm) of the same molecule?
**A.** 80%

**Q.** What about the pest or weed control at 400 µg/mL [6] of the same molecule?
**A.** 90 to 100%

**Q.** And the pest or weed control at 400 µg/mL [7]?
**A.** 90 to 100%

**Q.** And the pest or weed control at 400 µg/mL [8]?
**A.** 90 to 100%

**Q.** What about the pest or weed control at 400 µg/mL [9] of the same molecule?
**A.** 0 to 19%

**Q.** Which results are given for Cc1oc2ncnc(NCC(Cc3ccc(F)cc3)c3ccc(Cl)cc3)c2c1C (centres unmarked) [Example 26, N-[2-(4-chlorophenyl)-3-(4-fluorophenyl)propyl]-5,6-dimethylfuro[2,3-d]pyrimidin-4-amine]?
**A.** pest or weed control at 400 µg/mL [1]: 0 to 19%; mortality at 12 ppm ([2]; CRW rate 12.00 ppm): 0%; mortality at 24 ppm ([2]; CRW rate 24.00 ppm): 0%; mortality at 200 ppm ([3]; rate 200 ppm): 0%; mortality at 400 ppm ([3]; rate 400 ppm): 0%; mortality at 200 ppm ([4]; rate 200 ppm): 0%; mortality at 400 ppm ([4]; rate 400 ppm): 0%; mortality at 200 ppm ([5]; rate 200 ppm): 0%; mortality at 400 ppm ([5]; rate 400 ppm): 0%; pest or weed control at 400 µg/mL [6]: 0 to 19%; pest or weed control at 400 µg/mL [7]: 0 to 19%; pest or weed control at 400 µg/mL [8]: 0 to 19%; pest or weed control at 400 µg/mL [9]: 0 to 19%

**Q.** For Cc1oc2ncnc(OCCN3C[C@@H](C)O[C@@H](C)C3)c2c1C [Example 57, Cis-5,6-dimethyl-4-[2-(2,6-dimethyl-4-morpholinyl)ethoxy]furo[2,3-d]pyrimidine], which pest or weed control at 400 µg/mL [1] is on record?
**A.** 0 to 19%

**Q.** What about the “CRW results (percent mortality)” value ([2]; CRW rate 12.00 ppm) of the same molecule?
**A.** 0%

**Q.** What about the “CRW results (percent mortality)” value ([2]; CRW rate 24.00 ppm) of the same molecule?
**A.** 0%

**Q.** What about the mortality at 12 ppm ([2]; CRW rate 12.00 ppm) of the same molecule?
**A.** 0%

**Q.** What about the mortality at 24 ppm ([2]; CRW rate 24.00 ppm) of the same molecule?
**A.** 0%

**Q.** And the mortality at 200 ppm ([3]; rate 200 ppm)?
**A.** 0%

**Q.** And the mortality at 400 ppm ([3]; rate 400 ppm)?
**A.** 0%

**Q.** And the “SAW results (percent mortality)” value ([3]; rate 200 ppm)?
**A.** 0%

**Q.** What about the “SAW results (percent mortality)” value ([3]; rate 400 ppm) of the same molecule?
**A.** 0%

**Q.** What about the mortality at 200 ppm ([4]; rate 200 ppm) of the same molecule?
**A.** 0%

**Q.** And the mortality at 400 ppm ([4]; rate 400 ppm)?
**A.** 0%

**Q.** What about the “SM results (percent mortality)” value ([4]; rate 200 ppm) of the same molecule?
**A.** 0%

**Q.** What about the “SM results (percent mortality)” value ([4]; rate 400 ppm) of the same molecule?
**A.** 0%

**Q.** What about the mortality at 200 ppm ([5]; rate 200 ppm) of the same molecule?
**A.** 0%

**Q.** And the mortality at 400 ppm ([5]; rate 400 ppm)?
**A.** 0%

**Q.** What about the “MA results (percent mortality)” value ([5]; rate 200 ppm) of the same molecule?
**A.** 0%

**Q.** What about the “MA results (percent mortality)” value ([5]; rate 400 ppm) of the same molecule?
**A.** 0%

**Q.** What about the pest or weed control at 400 µg/mL [6] of the same molecule?
**A.** 0 to 19%

**Q.** And the pest or weed control at 400 µg/mL [7]?
**A.** 20 to 89%

**Q.** What about the pest or weed control at 400 µg/mL [8] of the same molecule?
**A.** 0 to 19%

**Q.** And the pest or weed control at 400 µg/mL [9]?
**A.** 0 to 19%
